Assays:
Assay type in all cases: physicochemical
[1] = Fluorescence viewed under long range UV light of 365 nm; conditions: excitation at 365 nm
From the text: In fact, the fluorescence is tied to molecular structure as characterized by ^1H NMR. Phytocannabinoids THC and CBN, are fluorescent, with excitation at 365 nanometer (nm). When fluorescent, the CBN phenolic OH becomes broad meaning that it is in some way connected to the fluorescence of the molecule.

[2] = Fluorescence spectrometer analysis of cannabinoid monomers and adipate dimers
[3] = Stability of CBN observed by NMR
From the text: In some embodiments, charge transfer complexes will quench fluorescence, and FRET as it will enhance fluorescence and cause a shift in color. Such adaptations provide, for example, for observation and understanding of a drug as it travels through the body, moves through a cell wall, and binds to a receptor site.

[4] = Fluorescence of CBN-aniline
Description: The synthesis of CBN-aniline was conducted via C—O bond using copper catalyst. The product was characterized by ^1H NMR. […] The CBN-aniline can be formed into dimers by linking through the aniline amine.

[5] = Absorption and fluorescence spectroscopy of CBN ether dimers (odd-even effect); conditions: FIG. 9
From the text: A change in number of carbon atoms in the linker with respect to the fluorescence was observed. Absorption and fluorescence spectroscopy was used to evaluate this change with the different dimers and the results are provided in FIGS. 9-10. FIG. 9 is a stacked graph of fluorescence spectroscopy for the odd and even series of dimers of Example 12 (x-axis wavelength in nanometers; y-axis intensity) and FIG. 10 is a stacked graph of the absorption spectroscopy for the same dimers (x-axis wavelength in nanometers; y-axis intensity). […] By changing the number of carbons in linkers, it was observed that when the number of carbon spacer is odd (3C and 5C) the fluorescence is higher compared to the even (2C, 4C and 6C), and a distinct hump at higher wavelengths is observed for odd numbered linkers. This change in the spectra with changing the number of carbons is termed here as the “odd-even effect”.

[6] = Fluorescence quenching by phenylenediamine isomers in acetone
Description: Experiments were conducted to investigate the fluorescence quenching of cannabinol 2C ether dimer (Example 12) in acetone upon mixing with different isomers of phenylenediamine: ortho-phenylenediamine, meta-phenylenediamine, and para-phenylenediamine. […] This quenching phenomenon can be attributed to the electronic interactions and spatial arrangements of the amino groups in the different phenylenediamine isomers. Both ortho- and para-phenylenediamine have amino groups positioned such that they can effectively engage in electron-donating and resonance interactions with the excited state of cannabinol 2C ether dimer, facilitating non-radiative relaxation pathways such as photoinduced electron transfer (PET).

| Compound | fluorescence (fluorescent or not) [1] | maximum fluorescence, Wavelength (nm) [2] | other results |
| --- | --- | --- | --- |
| CCCCCc1cc(O)c2c(c1)OC(C)(C)[C@@H]1CCC(C)=C[C@@H]21 [THC, tetrahydrocannabinol, reference compound] | fluorescent | – | – |
| CCCCCc1cc(O)c2c(c1)OC(C)(C)[C@@H]1CC=C(C)C[C@@H]21 [D-8 THC] | fluorescent properties | 380 nm | – |
| CCCCCc1cc(O)c2c(c1)OC(C)(C)c1ccc(C)cc1-2 [CBN, cannabinol] | fluorescent | 385 nm | chemical stability [3]: remains CBN for long durations; fluorescence (fluorescent or not) ([1]; listed as Cannabinol (CBN)): fluorescent properties |
| C=C(C)[C@@H]1CCC(C)=C[C@H]1c1c(O)cc(CCCCC)cc1O [CBD, cannabidiol, reference compound] | lacking in fluorescence | – | – |
| CCCCCc1cc2c(c(O)c1C(=O)O)[C@@H]1C=C(C)CC[C@H]1C(C)(C)O2 [D-9 THCA, Tetrahydrocannabinolic acid] | fluorescent properties | – | – |
| CCCCCc1cc(OC(=O)CCCCC(=O)Oc2cc(CCCCC)cc3c2-c2cc(C)ccc2C(C)(C)O3)c2c(c1)OC(C)(C)c1ccc(C)cc1-2 [CBN adipate dimer, DiCannabinol adipate] | fluorescent properties | 418 nm | fluorescence result compared among the cannabinoids tested ([2]; over THC adipate dimer): most promising results |
| CCCCCc1cc(O)c(C/C=C(\C)CCC=C(C)C)c(O)c1 [CBG, cannabigerol] | lacking in fluorescence | – | – |
| CCCCCc1cc(OC(=O)CCCCC(=O)Oc2cc(CCCCC)cc3c2C2CC(C)=CCC2C(C)(C)O3)c2c(c1)OC(C)(C)C1CC=C(C)CC21 (stereo not drawn) [d-8 THC adipate dimer] | fluorescent properties | 384 nm | – |
| CCCCCc1cc(Oc2ccc(N)cc2)c2c(c1)OC(C)(C)c1ccc(C)cc1-2 [CBN-aniline] | – | – | fluorescent properties [4]: exhibited fluorescent properties |
| CCCCCc1cc(OCCCCCOc2cc(CCCCC)cc3c2-c2cc(C)ccc2C(C)(C)O3)c2c(c1)OC(C)(C)c1ccc(C)cc1-2 [5C] | – | – | fluorescence, odd carbon spacer compared to the even (2C, 4C and 6C) [5]: higher |
| CCCCCc1cc(OCCCOc2cc(CCCCC)cc3c2-c2cc(C)ccc2C(C)(C)O3)c2c(c1)OC(C)(C)c1ccc(C)cc1-2 [3C] | – | – | fluorescence, odd carbon spacer compared to the even (2C, 4C and 6C) [5]: higher |
| CCCCCc1cc(OCCOc2cc(CCCCC)cc3c2-c2cc(C)ccc2C(C)(C)O3)c2c(c1)OC(C)(C)c1ccc(C)cc1-2 [cannabinol 2C ether dimer, Dicannabinolethyleneether dimer] | – | – | fluorescence quenching with meta-phenylenediamine [6]: minimal quenching; fluorescence quenching with ortho-phenylenediamine [6]: significantly quenched; fluorescence quenching with para-phenylenediamine [6]: significantly quenched |

From patent US12480074B2, “Natural and synthetic cannabinoids as fluorescent tags; compositions, methods, and applications” (UNIVERSITY OF CONNECTICUT, priority 2023, dated 2025)
